Measurements: patent US4937240A, “Thienotriazolodiazepine compounds and pharmaceutical uses thereof” (Yoshitomi Pharmaceutical Industries, Ltd., priority 1988, dated 1990)

Experiments:
PAF = settings: literature; cited from earlier work
PAF-induced lethal shock [1] = assay: Effect on PAF-induced lethal shock in mice (p.o.); assay type: in vivo; settings: Mus musculus, male ICR mice, 80 μg/kg PAF i.v. 1 hour after oral administration, observed 24 hours
Description: (§1) In order to determine PAF-antagonistic activity of the compounds of the present invention, the inhibitory effects of PAF-induced lethal shock in mice were investigated by oral administration and intravenous administration.
Experiment 1: Effect on PAF-induced lethal shock in mice (p.o.)
The experiment was carried out according to the method of Young et al. described in Prostaglandins, vol. 30, p. 545 (1985). Groups of 9 to 15 male ICR mice (Charles River) weighing 25-30 g were used. 80 μg/kg of PAF (Serdary Research Lab.) solution was intravenously administered in a lateral tail vein 1 hour after the oral administration of test compound (0.1 ml/10 g). […] Results were given as ED50 (mg/kg) in Table 1.

PAF-induced lethal shock [2] = assay: Effect on PAF-induced lethal shock in mice (i.v.); assay type: in vivo; settings: Mus musculus, male ICR mice, 80 μg/kg PAF i.v. 1 hour after intravenous administration, observed 24 hours
Description: as §1
Experiment 2: Effect on PAF-induced lethal shock in mice (i.v.)
The experiment was carried out according to the method of Young et al. as described in Experiment 1. Groups of 8 to 15 male ICR mice (Charles River) weighing 25-30 g were used. 80 μg/kg of PAF (Serdary Research Lab.) solution was intravenously administered in a lateral a tail vein 1 hour after the intravenous administration of test compound ([…]). […] Results were given as ED50 (mg/kg) in Table 2.

Structure (SMILES) | antagonistic activity on PAF (PAF) | ED50 (PAF-induced lethal shock [1]) [mg/kg] | ED50 (PAF-induced lethal shock [2]) [mg/kg]
Cc1nnc2n1-c1sc(CCC(=O)N3CCOCC3)cc1C(c1ccccc1Cl)=NC2 [4-(2-chlorophenyl)-9-methyl-6H-thieno[3,2-f][1,2,4]triazolo[] [4-(2-chlorophenyl)-9-methyl-6H-thieno[3,2-f][1,2,4]triazolo[4,3-a][1,4]diazepine-2-propionic acid morpholide] | exhibit antagonistic activity on PAF | – | –
Cc1nnc2n1-c1sc(CCC(=O)N3CCOCC3)cc1C(c1ccccc1Cl)=NC2C (centres unmarked) [A, 3-[4-(2-chlorophenyl)-6,9-dimethyl-6H-thieno[3,2-f][1,2,4]triazolo[4,3-a][1,4]diazepin-2-yl]propionic acid morpholide] | – | 0.065 | 0.021
Cc1nnc2n1-c1sc3c(c1C(c1ccccc1Cl)=NC2C)CC(C(=O)N1CCOCC1)C3 (centres unmarked) [B, 5-(2-chlorophenyl)-3,4-dihydro-7,10-dimethyl-3-morpholinocarbonyl-2H,7H-cyclopenta[4,5]thieno[3,2-f][1,2,4]triazolo[4,3-a][1,4]diazepine] | – | 0.55 | –
Cc1nnc2n1-c1sc3c(c1C(c1ccccc1Cl)=NC2C)CC(CN1CCOCC1)C3 (centres unmarked) [C, 5-(2-chlorophenyl)-3,4-dihydro-7,10-dimethyl-3-morpholinomethyl-2H,7H-cyclopenta[4,5]thieno[3,2-f][1,2,4]triazolo[4,3-a][1,4]diazepine 1/2 hydrate] | – | 0.2 | –
Cc1nnc2n1-c1sc(CCC(=O)N3CCN(CC(C)C)CC3)cc1C(c1ccccc1Cl)=NC2C (centres unmarked) [D, 3-[4-(2-chlorophenyl)-6,9-dimethyl-6H-thieno[3,2-f][1,2,4]triazolo[4,3-a][1,4]diazepin-2-yl]propionic acid 4-isobutyl-1-piperazide] | – | 0.3 | –
CCCN(CCC)C(=O)CCc1cc2c(s1)-n1c(C)nnc1C(C)N=C2c1ccccc1Cl (centres unmarked) [E, 3-[4-(2-chlorophenyl)-6,9-dimethyl-6H-thieno[3,2-f][1,2,4]triazolo[4,3-a][1,4]diazepin-2-yl]propionic acid N,N-dipropylamide] | – | 0.14 | –
Cc1nnc2n1-c1sc3c(c1C(c1ccccc1Cl)=NC2)CC(CN1CCOCC1)C3 (centres unmarked) [STY 2108, 5-(2-chlorophenyl)-3,4-dihydro-10-methyl-3-morpholinomethyl-2H,7H-cyclopenta[4,5]thieno[3,2-f][1,2,4]triazolo[4,3-a][1,4]diazepine] | exhibit more potent PAF-antagonistic activity | – | –
Cc1nnc2n1-c1sc(CCC(=O)N3CCOCC3)cc1C(c1ccccc1Cl)=NC2 [WEB 2086, 3-[4-(2-chlorophenyl)-9-methyl-6H-thieno[3,2-f][1,2,4]triazolo[4,3-a][1,4]diazepin-2-yl]propionic acid morpholide, reference compound] | exhibit more potent PAF-antagonistic activity | 1.6 | 0.125
